These are literature values, as cited in paper PMC6524651 (Cell chemical biology, 2018).

Data set [1] concerns SUMOylation. Particulars: read-out: IC50 in SUMOylation biochemical assays; among 780 assays; ref PubChem; cited from earlier work.
For data set [2], the system named is RORγ. To be noted: read-out: IC50 in cellular assay of RORγ; among 780 assays; ref PubChem; cited from earlier work.

What is called IC50 is the point on the concentration scale where inhibition reaches its midpoint. For the compound `C=CCC(Nc1ccccc1)C12C=CC(O1)C(C(=O)OC)=C2C(=O)OC` (centres unmarked) [CID 9549553], the IC50 in data set [1] and in data set [2] was less than 7 µM each time.
